pIC50: −log10 of the molar value. Read-outs that look alike come from different tables or passages of the source.
Key:
[1] = test system: P. falciparum 3D7 parasites; test: Standard 72 h antiplasmodial viability assay, 3D7; format: cell-based, Plasmodium falciparum; conditions: for Pf3D7 LD50 (72 h): sorbitol-treated ring stage, viability in next cycle (~72 h); for Pf3D7 LD50 (72-h): supplement CSV
Experimental: P. falciparum parasites used in this study were propagated in O+ human erythrocytes (Australian Red Cross Blood Service) in RPMI-1640, supplemented with GlutaMAX, 25 mM HEPES (Thermo Fisher Scientific), 5% (v/v) human serum (Australian Red Cross Blood Service), 0.25% (w/v) AlbuMAX II (Thermo Fisher Scientific), 10 μM D-glucose, 22 μg/mL gentamycin (Sigma-Aldrich), and 0.5 mM hypoxanthine (Sigma-Aldrich) and incubated at 37 °C in an atmosphere of 1% O2, 5% CO2, and 94% N2. Cultures were monitored by Giemsa staining of methanol-fixed blood smears. Culture medium was replaced at least every 48 h, and parasitemia was maintained below 10% to ensure health of cultures. The GFP-DD reporter strain was kindly provided by Dr. Paul Gilson, Dr. Brendan Crabb, and Dr. Mauro F. Azevedo (Burnet Institute).
(§1) For standard assays of antiplasmodial activity, sorbitol-treated ring stage parasites were incubated with the drugs for 72 h and viability was assessed in the second cycle.[12] Drug pulse assays were performed as described previously.[47] For short pulse assays, tightly synchronized early ring stage parasites (1–3 h after invasion) at 0.2% hematocrit and 1–2% parasitemia were subjected to 3 h drug pulse at 37 °C and returned to culture until parasites reached trophozoite stage of the following cycle. Cells were then stained with 2 μM Syto-61 (Thermo Fisher Scientific), and their fluorescence was measured by flow cytometry (FACSCanto II cytometer; Becton Dickinson). Data were gated and analyzed using FCS Express software (version 3) to determine parasitemia of each sample. Viability represents the parasitemia normalized to untreated and “kill treated” controls, where “kill treated” refers to samples treated with 2 μM DHA for 48–72 h. Interactions between DHA and MPI-1 or MPI-4 against the K13 mutant (DHA resistant) Cam3.II P. falciparum strain, exposed to a 3 h pulsed treatment, were determined at 4 h after invasion as described previously.[12]

HCT116 cells = test: HCT116 cellular toxicity (CellTiter-Glo, 72 h); format: cell-based, human; conditions: for HCT116 LD50 (72 h): 72 h incubation, mean ± SEM or half range, 2–4 experiments; for HCT116 LD50 (72-h): supplement CSV
Experimental: HCT-116 and HepG2 cells were obtained from the American Type Culture Collection and maintained as recommended by the supplier. Cells were cultured in the ATCC-formulated McCoy’s 5A medium or DMEM (Life Technologies, CA), supplemented with fetal bovine serum to a final concentration of 9–10%, and incubated at 37 °C in an atmosphere of 95% air and 5% CO2. Cellular toxicity assays were performed using Promega’s CellTiter-Glo assay system. Varying concentrations of the test compounds in 5% DMSO/95% PBS were dispensed into a 384-well plate and cells added to each well. The plates were incubated at 37 °C for 72 h, and the CellTiter-Glo assay to assess cell viability was performed as described by the manufacturer (Promega).
For human cell line activity assays, cellular toxicity assays were performed as described previously.[23],[48]

HepG2 cells = test: HepG2 cellular toxicity (CellTiter-Glo, 72 h); format: cell-based, human; conditions: for HepG2 LD50 (72 h): 72 h incubation, mean ± SEM or half range, 2–4 experiments; for HepG2 LD50( 72-h): supplement CSV
[2] = test system: P. falciparum Cam3.II^R539T; test: 3 h pulsed exposure viability assay, K13 mutant early rings; format: cell-based, Plasmodium falciparum; conditions: for Cam3.II^R539T LD50 (3 h): early ring (1–3 h p.i.), 3 h pulse, viability in next cycle, mean ± SEM, n=3; for Cam3.IIR539T LD50 (3-h): supplement CSV
Experimental: as §1

[3] = test system: P. falciparum Cam3.II^Rev; test: 3 h pulsed exposure viability assay, K13 wild-type revertant early rings; format: cell-based, Plasmodium falciparum; conditions: for Cam3.II^Rev LD50 (3 h): early ring (1–3 h p.i.), 3 h pulse, viability in next cycle, mean ± SEM, n=3; for Cam3.IIRev LD50 (3-h): supplement CSV
Experimental: as §1

[4] = test system: bortezomib-resistant 3D7 B1 line (clone B1a); test: 72 h viability assay, bortezomib-resistant B1 line / clone B1a; format: cell-based, Plasmodium falciparum; conditions: for bortezomib-resistant 3D7 B1 line LD50 (72 h): ring stage; for Bortezomib-resistant3D7 B1 LD50 (72-h): supplement CSV
Experimental: as §1
Prior to selection, an aliquot of the parental line was stocked as a reference for subsequent whole genome sequencing analysis. Several independent clones of P. falciparum 3D7 parasite line were cultured in Petri dishes exposed to increasing drug pressure for ∼30 weeks. Parasites were cloned by limiting dilution. For parasite extraction and genomic DNA isolation, cultures were scaled up to at least 4–5% parasitaemia, lysed in saponin, and genomic DNA was isolated using ISOLATE II Genomic DNA kit (Bioline). DNA libraries for each gDNA sample were prepared for sequencing using the Nextera XT kit as described previously.[50] Libraries were clustered and run on an Illumina HiSeq 2500 using the RapidRun mode, sequencing 100 base pairs in depth on either end. Paired-end reads were either aligned to the P. falciparum 3D7 reference genome (PlasmoDB version 13.0).

[5] = test system: Pf20S proteasome β1, β2, β5 subunits; format: biochemical, P. falciparum
[6] = test system: human constitutive proteasome and immunoproteasome catalytic subunits; test: BMV037 active site probe competition, purified human 20S proteasomes; format: biochemical; conditions: for subunit specificity by BMV037 probe labeling, human constitutive proteasome and immunoproteasome: compounds 1 h, probe 2 h
[7] = test system: Pf20S proteasome subunits of bortezomib-resistant parasites; test: BMV037 active site probe competition, bortezomib-resistant parasites; format: biochemical, P. falciparum; conditions: compounds 1 h
Experimental: Figure 3 Active site probe analysis of the proteasome subunit specificity of the selected compounds in 3D7 parent and bortezomib-resistant parasites. Purified Pf20S proteasome from wild-type 3D7 (A) and bortezomib-resistant (C) parasites or wild-type 3D7 (B) and bortezomib-resistant (D) trophozoite-infected erythrocytes were treated with compounds for 1 h, and activity-based probe (BMV037) labeling was performed (postlysis for the trophozoite samples). Fluorescent gel scans reveal subunits that remain active after treatment.
P. falciparum culture, purified Pf20S proteasomes, human constitutive proteasomes, or immunoproteasomes (Boston Biochem) were incubated with test compounds at 37 °C for 1 h. Treated parasite lysates (10 μg), Pf20S proteasomes (80 nM), human constitutive proteasomes (20 nM), or immuno-20S proteasomes (20 nM) were labeled with BMV037 (10 μM) at 37 °C for 2 h. Samples were mixed with SDS loading buffer and heated at 95 °C for 5 min. Samples for P. falciparum and human immuno-20S were run on 4–12% Bis-Tris acrylamide gels using MES SDS running buffer (Thermo Fisher Scientific). Human constitutive 20S samples were run on a 10% Bis-Tris acrylamide gel using MOPS SDS running buffer (Thermo Fisher Scientific). Gels were imaged at the Cy5 channel on a Gel Doc XR+ Documentation System (Bio-Rad) or an Amersham Typhoon Trio imager (GE Healthcare Life Sciences).

[8] = compounds 1 h, purified Pf20S or infected erythrocytes

| SMILES | Pf3D7 LD50 (72 h) ([1]; mean ± SEM, n=3) [µM] | Pf3D7 LD50 (72-h) [1] [µM] | HCT116 LD50 (72 h) (HCT116 cells) [µM] | HCT116 LD50 (72-h) (HCT116 cells) [µM] | HepG2 LD50 (72 h) (HepG2 cells) [µM] | HepG2 LD50( 72-h) (HepG2 cells) [µM] | Cam3.II^R539T LD50 (3 h) [2] [µM] | Cam3.IIR539T LD50 (3-h) [2] [µM] | Cam3.II^Rev LD50 (3 h) [3] [µM] | Cam3.IIRev LD50 (3-h) [3] [µM] | bortezomib-resistant 3D7 B1 line LD50 (72 h) ([4]; mean ± SEM, n=3) [µM] | Bortezomib-resistant3D7 B1 LD50 (72-h) [4] [µM] | subunit specificity by BMV037 probe labeling, wild-type 3D7 [5, 8] | subunit specificity by BMV037 probe labeling, human constitutive proteasome and immunoproteasome [6] | BMV037 labeling of the β5 active site in bortezomib-resistant parasites [7] | also measured |
| --- | --- | --- | --- | --- | --- | --- | --- | --- | --- | --- | --- | --- | --- | --- | --- | --- |
| CC(=O)N1CCC[C@@H]1C(=O)N[C@@H](C)C(=O)N[C@@H](Cc1ccccc1)B(O)O [MPI-1] | 0.12 ± 0.01 | 0.12 ± 0.01 | 0.79 ± 0.01 | 0.79 ± 0.01 | 6.7 ± 3.2 | 6.7 ± 3.2 | 0.82 ± 0.06 | 0.82 ± 0.06 | 0.9 ± 0.1 | 0.9 ± 0.1 | 0.23 ± 0.04 | 0.23 ± 0.04 | preferentially inhibited binding of the probe to the β5 subunit | preferentially targeted the β5 subunits | still able to prevent BMV037 labeling of the β5 active site | binding of the BMV037 probe to β5c after treatment ([6]; 10 μM): did not completely ablate binding of the probe to β5c |
| CC(C)C[C@H](NC(=O)[C@H](Cc1ccccc1)NC(=O)Cc1ccc(O)cc1)B(O)O [MPI-4] | 0.061 ± 0.007 | 0.061 ± 0.007 | 0.025 ± 0.014 | 0.025 ± 0.014 | 0.04 ± 0.01 | 0.04 ± 0.01 | 0.16 ± 0.01 | 0.16 ± 0.01 | 0.18 ± 0.02 | 0.18 ± 0.02 | 0.077 ± 0.001 | 0.077 ± 0.001 | inhibited both β2 and β5 activities | preferential inhibition of the β1 and β5 subunits | did not prevent labeling of the β5 active site | cross-resistance of the bortezomib-resistant parasite line (B1) ([4]; growth inhibition, versus 3D7): retained sensitivity; BMV037 labeling of the β2 active site in bortezomib-resistant parasites [7]: completely inhibit BMV037 labeling of the β2 active site |
| CC(C)C[C@H](NC(=O)[C@H](Cc1ccccc1)NC(=O)c1cnccn1)B(O)O [bortezomib, reference compound] | 0.06 ± 0.01 | 0.06 ± 0.01 | 0.006 ± 0.001 | 0.006 ± 0.001 | 0.03 ± 0.02 | 0.03 ± 0.02 | 0.12 ± 0.02 | 0.12 ± 0.02 | 0.18 ± 0.06 | 0.18 ± 0.06 |  | 1.3 ± 0.1 |  | preferentially inhibits the β1 and β5 subunits |  | pIC50 ([1]; Plasmodium falciparum, 3D7, dose–response profiles, n = 3, read-out: 50% viability inhibitory concentration against 3D7 parasites): ~7.22; LD50 (72 h), 3D7 parent ([1]; bortezomib, wild-type parent clone, mean ± SEM, n=3): 0.06 ± 0.01 µM; LD50 (72 h), 3D7 B1a ([4]; bortezomib, resistant clone B1a, mean ± SEM, n=3): 1.3 ± 0.1 µM; subunit specificity by BMV037 probe labeling, wild-type 3D7 [5]: preferential inhibition of the β5 activity; BMV037 competition profile in bortezomib-resistant parasites [7]: unable to prevent binding of the probe |
